Article PMC3700907 (PLoS ONE, 2013)
Values joined by “and” are separate entries in the source; they are usually repeats but may differ in a detail not shown here. Equal values may be shown once. Read-outs that look alike come from different tables or passages of the source.

Legend:
[1] = assay type: physicochemical
[2] = assay type: physicochemical; settings: pH 3.7
mPrP(23–230) monomer = mPrP(23–230) monomer (Mus musculus, UniProt P04925); settings: pH 6
Chain of mPrP(23–230) monomer (P04925 23-230 limits assumed): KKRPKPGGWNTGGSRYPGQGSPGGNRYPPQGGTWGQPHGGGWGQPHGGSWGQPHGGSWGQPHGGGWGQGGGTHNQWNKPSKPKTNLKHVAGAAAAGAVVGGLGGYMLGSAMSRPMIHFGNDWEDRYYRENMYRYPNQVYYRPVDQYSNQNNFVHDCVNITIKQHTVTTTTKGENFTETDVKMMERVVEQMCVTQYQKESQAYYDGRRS

With “Ac-YMLGSAMSRPMIHFGND-NH2 [mPrP(127–143)]” the “monomer concentration remained in solution after fibrillization” value ([1]; pH 3.7) was 32.6 µM and 35.6 µM and 27.2 µM, the “average lag time for amyloidogenesis” value [2] was “hardly detectable” and the “cross-seeding effect on mPrP(23–230) monomer” value (mPrP(23–230) monomer) was “induced immediately”.
With “Ac-NLKHVAGAAAAGAVVGGLGG-NH2 [mPrP(107–126)]” the “monomer concentration remained in solution after fibrillization” value ([1]; pH 7.4) was 12.4 µM and 11.1 µM and 6.6 µM, the “average lag time of amyloid formation of mPrP(23–230) relative to unseeded reaction” value (mPrP(23–230) monomer) was “slightly prolonged” and the “cross-seeding effect on mPrP(23–230) monomer” value (mPrP(23–230) monomer) was “no seeding effect”.
